Literature values in patent US11576929B2, “Composition for inflammatory gastrointestinal disorders” (SUMITOMO SEIKA CHEMICALS CO., LTD., priority 2018, dated 2023).

Tested on: colitis in rats
Settings: direct inhalation into rats

For `[C-]#[O+]` [CO (gas), carbon monoxide], the colitis is given as “inhibited colitis”.
